Experimental findings from PubChem BioAssay AID1552 (Sanford-Burnham Center for Chemical Genomics, 2009) are described below.

Activity calls are given as the source filed them. No rule for the calls is given here.

For this assay, the target named is Ubiquitin-conjugating enzyme E2 N (Homo sapiens) (UniProt P61088). Kind of assay: NMR detection of UBE2N ligand binding – biophysical, purified protein (AID 1552). The following applies: NMR binding to purified UBE2N.
Ubiquitin-conjugating enzyme E2 N (Homo sapiens), sequence (P61088 whole entry, looked up): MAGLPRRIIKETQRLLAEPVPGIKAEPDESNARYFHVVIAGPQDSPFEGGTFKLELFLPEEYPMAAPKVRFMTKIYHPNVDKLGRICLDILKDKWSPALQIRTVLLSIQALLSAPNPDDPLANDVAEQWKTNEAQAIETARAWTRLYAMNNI
As a reminder, the Kd is the free concentration of one partner at which half of the binding sites on the other are occupied at equilibrium, for simple one-to-one binding. Regarding `CCOc1ccc(C(=O)c2ccncc2)cc1`, the Kd was > 4 mM (inactive).
As for `O=C1c2cccnc2C(=O)N1Cc1ccco1`, the figure is > 4 mM (inactive); as for `O=C(CNC(=O)c1cccs1)NC1=NCCS1`, > 4 mM (inactive); as for `CC(=O)Nc1nc(C)nc(-c2ccccc2)c1C(C)=O`, > 4 mM (inactive).
The figure for `CCSc1nc(C)c(CC)c(C)c1C(N)=O` is > 4 mM (inactive).
The figure for `COc1ccccc1-c1noc(-c2ccncc2)n1` is > 4 mM (inactive).
Regarding `CCc1nnsc1C(=O)Nc1nccs1`, the Kd was > 4 mM (inactive).
As for `O=C(O)CCCCCCCCCCCCC1C=CCC1` (stereo unspecified), the figure is > 4 mM (inactive); as for `Cc1ccccc1NC(=O)CC1NCCNC1=O` (stereo unspecified), > 4 mM (inactive); as for `CC(=O)n1c(N)nc2ccccc21`, > 4 mM (inactive).
As for `Cn1cnc([N+](=O)[O-])c1Sc1ncnc2nc[nH]c12`, the figure is > 4 mM (inactive); as for `OCc1ccc2nsnc2c1`, > 4 mM (inactive); as for `C=Cc1c(C)c2cc3[nH]c(cc4nc(cc5nc(cc1[nH]2)C(C)=C5CCC(=O)O)C(CCC(=O)O)=C4C)c(C)c3C=C`, > 4 mM (inactive).
The figure for `CS(=O)(=O)N1CCN(C(=O)c2ccccc2F)CC1` is > 4 mM (inactive); for `O=c1cc(-c2ccccc2)oc2cc(O)c(O)c(O)c12` it is > 4 mM (inactive).
For the compound `NCc1ccccc1N1CCCCC1`, the Kd is > 4 mM (inactive).
As for `O=c1c2ccccc2nc2n1CCC2O` (stereo unspecified), the figure is > 4 mM (inactive).
On to `COC(=O)c1cc(-c2c[nH]c3ccccc23)n[nH]1`, for which the Kd was > 4 mM (inactive).
The figure for `CCOc1ccc(N2C(=O)CCC2=O)cc1` is > 4 mM (inactive); for `O=C(Nc1ccccc1)c1cccc(N2C(=O)CCC2=O)c1` it is > 4 mM (inactive).
Consider `C[C@@H]1CC[C@@]2(OC1)OC1CC3C4CC=C5C[C@@H](O)CC[C@]5(C)C4CC[C@]3(C)C1[C@@H]2C` (stereo partly specified), for which the Kd is > 4 mM (inactive).
As for `CC1(C)NC(=O)N(CN2CCOCC2)C1=O`, the figure is > 4 mM (inactive); as for `COc1cc(C)nc(N(CCO)CCO)n1`, > 4 mM (inactive).
As to `C/C=C(\C)C(=O)O[C@H]1C[C@@H](OC(C)=O)[C@@]2(C(=O)OC)CO[C@@H]3C2[C@]12CO[C@](O)(C(=O)OC)[C@H]2[C@](C)(C12O[C@@]1(C)[C@H]1C[C@@H]2OC2OC=C[C@@]21O)[C@@H]3O` (stereo partly specified), the Kd is > 4 mM (inactive).
The figure for `COC(=O)c1c(SC)nc(-c2ccccc2)[nH]c1=O` is > 4 mM (inactive).
As for `O=C(O)Cc1noc2ccccc12`, the figure is > 4 mM (inactive); as for `COC(=O)c1cc(-c2c(C)nn(-c3ccccc3)c2C)n[nH]1`, > 4 mM (inactive); as for `Cn1ncc(C(=O)O)c1-c1ccccc1`, > 4 mM (inactive).
As for `Cc1cc(O)c2c(c1O)C(=O)c1c(O)cc(C)c(O)c1C2=O`, the figure is > 4 mM (inactive); as for `Oc1cnc2ccccc2c1CN1CCOCC1`, > 4 mM (inactive); as for `CC(=O)N(C)Cc1nc2ccccc2n1C`, > 4 mM (inactive).
On to `Cc1cc(NC(=O)c2ccccc2C(=O)O)no1`, for which the Kd was > 4 mM (inactive).
As for `O=C(CSc1ccc(Cl)cc1)N1CCOCC1`, the figure is > 4 mM (inactive); as for `CCOC(=O)N1CCCC1c1cccnc1` (stereo unspecified), > 4 mM (inactive).
As for `Oc1ccccc1C(=S)N1CCCCCC1`, the figure is > 4 mM (inactive); as for `CCCS(=O)(=O)N1CCN(c2ccccn2)CC1`, > 4 mM (inactive).
As for `CC(Sc1ncn[nH]1)C(=O)O` (stereo unspecified), the figure is > 4 mM (inactive); as for `CN1C(=O)C2CC=C(Cl)CC2C1=O` (stereo unspecified), > 4 mM (inactive).
For `NC1=NC(=O)/C(=C\c2cccnc2)S1`, the Kd is > 4 mM (inactive).
`O=C(O)C1CC(C2CCCCN2)CN2CCCCC12` (stereo unspecified): the Kd is > 4 mM (inactive).
The figure for `NC(=O)CCn1ncc2ccccc21` is > 4 mM (inactive); for `NCCCCN` it is > 4 mM (inactive); for `O=C(Nc1cccnc1)c1c(F)cccc1F` it is > 4 mM (inactive).
Take `COC1=C(OC)C(=O)C(C/C=C(\C)CC/C=C(\C)CC/C=C(\C)CC/C=C(/C)CC/C=C(\C)CC/C=C(\C)CC/C=C(\C)CC/C=C(\C)CC/C=C(\C)CCC=C(C)C)=C(C)C1=O`: the Kd was > 4 mM (inactive).
The figure for `CC[C@@]1(O)C[C@H](O[C@H]2C[C@H](N(C)C)[C@H](O)[C@H](C)O2)c2c(cc3c(c2O)C(=O)c2c(O)cccc2C3=O)[C@H]1C(=O)OC` is > 4 mM (inactive); for `O=C(/C=C(\O)c1ccccc1)c1ccccc1O` it is > 4 mM (inactive).
As for `NCc1oc(-c2ccccc2)cc1C(=O)O`, the figure is > 4 mM (inactive); as for `O=C(O)CCCC(=O)Nc1nccs1`, > 4 mM (inactive).
The figure for `Cc1cc(C)c(C#N)c(N2CCCC2)n1` is > 4 mM (inactive); for `c1ccc(SCc2nc(-c3ccncc3)no2)cc1` it is > 4 mM (inactive); for `CC1(C)C2CC[C@]3(C)C(C(=O)C=C4[C@@H]5C[C@@](C)(C(=O)O)CC[C@]5(C)CC[C@]43C)[C@@]2(C)CC[C@@H]1O` (stereo partly specified) it is > 4 mM (inactive).
On to `NC(=O)Cc1nc(-c2ccccc2)cs1`, for which the Kd is > 4 mM (inactive).
As for `Cc1nnc(SCc2ccon2)n1-c1ccccc1`, the figure is > 4 mM (inactive).
On to `O=C(O)c1ccc(N2CCOCC2)cc1`, for which the Kd is > 4 mM (inactive).
As for `Cc1nc(-c2ccc(CO)s2)cs1`, the figure is > 4 mM (inactive).
As for `O=c1c2c(nc3nc(Cc4ccccc4)[nH]n13)CCC2`, the figure is > 4 mM (inactive); as for `O=C(Nc1ccc2c(c1)OCCO2)c1ccncc1`, > 4 mM (inactive); as for `NC(=O)CC1Nc2cccc3cccc(c23)NC1=O` (stereo unspecified), > 4 mM (inactive).
The figure for `CCC(C)C(=O)O[C@@H]1C[C@@]2(C)[C@H](c3ccoc3)OC(=O)CC23OC2(C)OC34[C@H](OC(=O)C(C)C)[C@@]3(O)[C@@H](OC(=O)C5(C)OC5C)[C@@]5(C)C[C@]3(O)[C@@](C)([C@H]5CC(=O)OC)C14O2` (stereo partly specified) is > 4 mM (inactive); for `Cc1ccccc1NC(=O)CSc1ccnc(=O)[nH]1` it is > 4 mM (inactive).
On to `S=c1[nH]cnc2sccc12`, for which the Kd is > 4 mM (inactive).
The figure for `OCC1Cc2ccccc2N1` (stereo unspecified) is > 4 mM (inactive); for `O=C1NC(=O)C(C2SC(=O)NC2=O)S1` (stereo unspecified) it is > 4 mM (inactive); for `NC(CC(=O)O)c1ccccc1` (stereo unspecified) it is > 4 mM (inactive).
As for `CCOC(=O)c1cnc2sccn2c1=O`, the figure is > 4 mM (inactive); as for `COc1ccc2[nH]cc(CCN(C)C)c2c1`, > 4 mM (inactive).
As for `O=S1(=O)CCC(NC(=S)N2CCOCC2)C1` (stereo unspecified), the figure is > 4 mM (inactive); as for `Cn1c(C(=O)O)ccc1S(N)(=O)=O`, > 4 mM (inactive); as for `Cc1ccc(-c2nc(-c3cccnc3)no2)c(C)c1`, > 4 mM (inactive).
As for `Cc1ccc(N2C(=O)CCC2=O)cc1`, the Kd was > 4 mM (inactive).
The figure for `Cn1nc(C(=O)Nc2cccnc2)c2ccccc2c1=O` is > 4 mM (inactive); for `S=c1[nH]c2cccnc2[nH]1` it is > 4 mM (inactive); for `CC(=O)Nc1ccc(Nc2nnc(C)c(=O)[nH]2)cc1` it is > 4 mM (inactive).
As for `Fc1ccc(-c2n[nH]c(=S)n2CC2CCCO2)cc1` (stereo unspecified), the figure is > 4 mM (inactive).
On to `S=C(CN1CCCC1=S)N1CCOCC1`, for which the Kd is > 4 mM (inactive).
As for `O=C(Nc1nnc(C(F)(F)F)s1)c1cccnc1`, the figure is > 4 mM (inactive); as for `CCN(CC)S(=O)(=O)c1ccc(F)cc1`, > 4 mM (inactive).
In the case of `O=C1NC(=O)C(=Cc2cccs2)C(=O)N1`, the Kd was > 4 mM (inactive).
The figure for `O=C(Nc1nnc(-c2cccnc2)o1)c1ccccc1F` is > 4 mM (inactive); for `O=C1C2CCCCC2C(=O)N1Cc1cccnc1` (stereo unspecified) it is > 4 mM (inactive); for `COC1=CC(=O)C[C@@H](C)[C@]12Oc1c(Cl)c(OC)cc(OC)c1C2=O` it is > 4 mM (inactive).
As for `Cc1c(/C=N\n2cnnc2)c2ccccc2n1C`, the figure is > 4 mM (inactive); as for `CC1(C)CC23C(=O)CCC(O)C2(C)CCC13` (stereo unspecified), > 4 mM (inactive).
The figure for `O=C(O)C1CCN(c2ccc(C(F)(F)F)cn2)CC1` is > 4 mM (inactive); for `C=CC(C)(O)CC/C=C(\C)CCC=C(C)C` (stereo unspecified) it is > 4 mM (inactive); for `O=C(c1cccc(C(F)(F)F)c1)N1CCCC1` it is > 4 mM (inactive).
Regarding `O=C1CCCC(=O)N1Cc1ccco1`, the Kd is > 4 mM (inactive).
The figure for `O=C(O)Cn1cc(C(=O)c2cccs2)c2ccccc21` is > 4 mM (inactive).
The figure for `NCc1ccc(CN2CCOCC2)cc1` is > 4 mM (inactive); for `Cc1cc(N)no1` it is > 4 mM (inactive); for `O=C(O)c1cccnc1-c1nc2ccccc2s1` it is > 4 mM (inactive).
As for `O=C(O)CCC(=O)NCc1cccnc1`, the figure is > 4 mM (inactive); as for `Cc1nn2c(-c3ccncc3)nnc2c2ccccc12`, > 4 mM (inactive).
`CC1/C(=N/O)C[C@@H]2C[C@H]1C2(C)C` (stereo partly specified): the Kd was > 4 mM (inactive).
Turning to `Cc1nn(C)c(C)c1C(=O)O`, the Kd was > 4 mM (inactive).
The figure for `COCCOc1nc2ccccc2nc1C` is > 4 mM (inactive); for `C[C@H]1C[C@@H](O)[C@]2(O)[C@@]13CC(=O)OC[C@@]2(C)[C@](C)(O)C(=O)C3` it is > 4 mM (inactive).
As for `O=C(Nc1ccc(N2CCCC2=O)cc1)c1cccc(F)c1`, the figure is > 4 mM (inactive).
The figure for `O=C(O)CCCN1CNC(=S)NC1` is > 4 mM (inactive).
Turning to `O=C1CC(=O)N(c2ccccc2)C(=O)N1`, the Kd is > 4 mM (inactive).
Turning to `OCc1ncoc1-c1ccccc1`, the Kd is > 4 mM (inactive).
